Results: article PMC4418665, “Cyclization of the Urokinase Receptor-Derived Ser-Arg-Ser-Arg-Tyr Peptide Generates a Potent Inhibitor of Trans-Endothelial Migration of Monocytes” (PLoS ONE, 2015)
Peptide text beside a SMILES is read from it.

Columns and labels:
FPR1 = biological target: T1, FPR1 (Homo sapiens, UniProt P21462); test: Agonist-dependent FPR1 internalization at 37°C, fluorescence microscopy, RBL-2H3/ETFR cells; type: cell-based; set-up: expressed in transfected cells; details: 100 nM peptide 30 min at 37°C, then 10 nM FITC-fMLF 30 min at 37°C
T1 sequence (P21462 1-350): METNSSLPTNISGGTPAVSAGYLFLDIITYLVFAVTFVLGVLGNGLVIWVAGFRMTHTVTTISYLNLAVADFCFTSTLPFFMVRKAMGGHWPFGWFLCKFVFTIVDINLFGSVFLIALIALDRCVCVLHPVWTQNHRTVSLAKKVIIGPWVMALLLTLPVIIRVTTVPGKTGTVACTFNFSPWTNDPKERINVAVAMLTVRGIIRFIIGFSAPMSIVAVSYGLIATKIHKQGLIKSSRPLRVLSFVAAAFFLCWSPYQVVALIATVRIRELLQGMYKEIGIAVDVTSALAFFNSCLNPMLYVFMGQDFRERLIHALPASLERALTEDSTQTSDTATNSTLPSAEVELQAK
Protocol: We have previously documented that SRSRY competes with the bacterial-derived N-formyl-methionyl-leucyl-phenylalanine peptide (fMLF) for binding to FPR type 1 (FPR1) and that both SRSRY and fMLF promote cell migration by triggering FPR1 internalization. […] Quantification of cell-associated fluorescence was assessed by reading cell lysates with a fluorescence plate reader. RBL-2H3 cells lack FPR1, thus they display very low uptake that was not saturable with unlabeled fMLF (Fig 2A). […] To evaluate the effect of [SRSRY] on agonist-dependent FPR1 internalization, binding experiments were performed at 37°C. […] Thus, we assessed whether [SRSRY] elicits effects on fMLF-directed cell migration. RBL-2H3/ETFR cell migration toward 10 nM fMLF was monitored in real-time for 4 hours as Cell Index changes due to the adhesion of migrating cells to microelectrodes using the xCELLigence RTCA technology as previously described. […]
Fig 2 Both linear and cyclic SRSRY peptides bind to FPR1. […] Fluorimetric measurement of cell-associated fluorescence was assed using 485 nm excitation and 535 nm emission filters. Data are expressed as a percentage of the fluorescence associated to RBL-2H3 cells exposed to FITC-fMLF alone (CTL = 100%) and represent a mean ± SD from triplicates. *Statistical significance (t-test) against None with p<0.001. […] Cell migration of RBL-2H3/ETFR cells monitored by the xCELLigence system. […]

[1] = Serum stability in human serum (RP-HPLC); type: in vitro ADME; details: 37°C, peptide 10^-2 mol/L, acetonitrile precipitation; for remaining at 1 h: RP-HPLC C18, % of concentration at time 0, read-out: residual concentration after one hour of exposure to serum; for remaining at 24 h: RP-HPLC C18, % of concentration at time 0, read-out: residual concentration after 24 hours in serum
Protocol: Cyclization of peptides listed in Table 1was obtained as described in the Material and Methods, using the strategy depicted in the S1 Fig. The stability of the linear peptide Ser-Arg-Ser-Arg-Tyr (SRSRY) and cyclized peptide Ser-Arg-Ser-Arg-Tyr [SRSRY] in human serum was investigated through incubation of the peptide at a 10^–2 mol/L in human serum and samples were taken at different time points and analysed by Reversed-phase chromatography (RP-HPLC). Serum-dependent degradation of peptides was monitored for up to 24 hours.
Fig 1 Stability of SRSRY and [SRSRY] peptides in human serum. The stability of [SRSRY] and SRSRY was performed by the injection of the peptide at a 10^–2 mol/L in human serum at 37°C. Intervals of analysis by RP-HPLC on the compound incubated in serum were carried out growing with time from 1 to 24 hours. Values are expressed as a percentage of peptide concentration assessed at time 0. [SRSRY]
The stability of SRSRY and [SRSRY] was investigated in human serum. The peptides were incubated at 37°C in human serum at a concentration of 10^-2mol/L. Aliquots ([…]) of serum were removed at time points varying from 0, 1, 2, 4, 6, and 24 hours and acetonitrile ([…]) was added to each aliquot before centrifuging (13000 rpm, 15 min). Aliquots ([…]) of the supernatant were then analyzed by RP-HPLC after passing through Phenomenex Luna 100A C18 5μ, linear gradient from 0–90% acetonitrile in water over 25 minutes.

SMILES | agonist-dependent FPR1 internalization in RBL-2H3/ETFR cells (FPR1) | remaining at 1 h [1] [%] | remaining at 24 h [1] [%]
N=C(N)NCCC[C@H](NC(=O)[C@H](CO)NC(=O)[C@H](CCCNC(=N)N)NC(=O)[C@@H](N)CO)C(=O)N[C@@H](Cc1ccc(O)cc1)C(N)=O [SRSRY, H-Ser-Arg-Ser-Arg-Tyr-NH2] (H-SRSRY-NH2) | prevented | < 75 | < 50
N=C(N)NCCC[C@@H]1NC(=O)[C@H](CO)NC(=O)[C@H](Cc2ccc(O)cc2)NC(=O)[C@H](CCCNC(=N)N)NC(=O)[C@H](CO)NC1=O [[SRSRY], [Ser-Arg-Ser-Arg-Tyr]] (cyclo(RSRYS)) | prevented agonist-dependent FPR1 internalization | < 85 | > 80
